# Like-named read-outs stand apart in the source and are kept apart here.
# Tests used:
# [1] = test system: P. aeruginosa A9843A; assay: animal or person; type: in vivo, mice; settings: Pseudomonas aeruginosa, in Mus musculus, im, 3.5 h, read-out: PD50 /treatment
# Method: (§1) Drugs were administered i.m. 0 to 2 hours post-infection (A9606) or 1 and 3.5 hours post-infection for the others.
# [2] = Half-life in phosphate buffer pH 7.4; type: physicochemical; settings: phosphate buffer, pH 7.4, τ1/2 (half-life)
# Method: To a solution of p-nitrobenzyl 3-[2-(1-pyridinium)ethylthio)]-6α[1-(R)-hydroxyethyl]-7-oxo-1-azabicyclo(3.2.0)hept-2-ene-carboxylate diphenylphosphate (0.16 g, 0.22 mmol) in wet tetrahydrofuran (10mL) was added ether (10mL), potassium phosphate monobasic-sodium hydroxide buffer pH 7.4 (16 mL, 0.05 M) and 10% palladium on charcoal (0.16 g). The resulting mixture was hydrogenated under 40 psi for 1 h at 25° C. The two phases were separated and the organic phase was extracted with water (2×3 mL). The aqeuous solutions were combined, washed with ether (2×10 ml) and poured on top of a column (1.5×6.2 cm) pf μ-bondapak C-18 after the traces of organic solvents have been removed under vacuum. Elution of the column with water gave after lyophylization of the appropriate fractions a yellowish powder 0.062 g (84%), ir (KBr) .nu.max : 3700-3000 (OH), 1755 (C--O of β-lactam), 1630 (pyridinium), 1590 cm^-1 (carboxylate), ^1 Hmr (D2 O): 1.22 (3H, d, J=6.4 Hz, CH3 CHOH), 2.92 (d, J=9.1 Hz, H-4), 2.97 (d, J=9.1 Hz, H-4), 3.20 (dd, J=2.5 Hz, J=6.1 Hz, H-6), 3.44 (t, J=6.0 Hz, CH2 S), 3.93 (dd, J=9.1 Hz, J=2.5 Hz, H-5), 4.82 (t, J=6.0 Hz, CH2 N^+), 8.04 (m, Hm of pyridinium), 8.5 (m, Hp of pyridinium), 8.82 (dd, J=3.2. Hz, J=1.1 Hz, Ho of pyridinium), uv (H2 O) λ max : 259 (ε5800), 296 (ε7030) mμ, .tau.1/2 =13.5 h (measured at a concentration of 10^-4 M in phosphate buffer pH 7.4 at 36.8° C.).
# [3] = Pharmacokinetic parameters in the mouse after intramuscular dose; type: in vivo, mice; settings: im, 20 mg/kg
# Description: Also shown is the urinary recovery in the mice.
# Compounds were solubilized in 0.1 M phosphate buffer pH 7.
# [4] = test system: E. coli A20341-1; assay: Minimum Inhibitory Concentration, tube dilution; type: cell-based; settings: Escherichia coli
# [5] = test system: H. influenzae A21518; assay: Minimum Inhibitory Concentration, tube dilution; type: cell-based; settings: Haemophilus influenzae, overnight 37° C.
# [6] = test system: M. morganii A15153; assay: Minimum Inhibitory Concentration, tube dilution; type: cell-based; settings: Morganella morganii, A15153, overnight 37° C.; table 6
# [7] = test system: P. rettgeri A22424; assay: Minimum Inhibitory Concentration, tube dilution; type: cell-based; settings: Providencia rettgeri, overnight 37° C.
# [8] = test system: S. aureus A-9606 (Pen-res.); assay: Minimum Inhibitory Concentration, tube dilution; type: cell-based; settings: Staphylococcus aureus
# [9] = test system: B. fragilis A22696; assay: Minimum Inhibitory Concentration, tube dilution; type: cell-based; settings: Bacteroides fragilis, overnight 37° C.
# [10] = test system: E. coli A15119; assay: Minimum Inhibitory Concentration, tube dilution; type: cell-based; settings: Escherichia coli
# [11] = test system: P. aeruginosa A21213; assay: Minimum Inhibitory Concentration, tube dilution; type: cell-based; settings: Pseudomonas aeruginosa, A21213, overnight 37° C.; table 6; read-out: MIC
# [12] = test system: P. mirabilis A-9900; assay: Minimum Inhibitory Concentration, tube dilution; type: cell-based; settings: Proteus mirabilis, A9900, overnight 37° C.; table 6
# [13] = test system: E. cloacae A9659; assay: Minimum Inhibitory Concentration, tube dilution; type: cell-based; settings: Enterobacter cloacae, A9659, overnight 37° C.; table 6; read-out: MIC
# [14] = test system: P. mirabilis A9900; assay: Protective effect, intramuscular treatment of infected mice (table 7); type: in vivo; settings: Proteus mirabilis, A9900, im; i.m. 1 and 3.5 hours post-infection; ~1×10^7 organisms i.p.; read-out: PD50 /treatment
# Method: as §1
# [15] = test system: P. aeruginosa A20481; assay: as above; type: in vivo; settings: Pseudomonas aeruginosa, A20481, im; i.m. 1 and 3.5 hours post-infection; ~1×10^5 organisms i.p.; read-out: PD50 /treatment
# Method: as §1
# [16] = test system: S. aureus A9606; assay: as above; type: in vivo; settings: Staphylococcus aureus, A9606, im; i.m. 0 to 2 hours post-infection; ~1×10^9 organisms i.p.; read-out: PD50 /treatment
# Method: as §1
# [17] = test system: E. cloacae A-9656; assay: Minimum Inhibitory Concentration, tube dilution; type: cell-based; settings: Enterobacter cloacae, A9656; overnight 37° C.; table 6
# [18] = test system: B. fragilis A22862; assay: Minimum Inhibitory Concentration, tube dilution; type: cell-based; settings: Bacteroides fragilis, overnight 37° C., table 6
# [19] = test system: S. pneumoniae A-9585; assay: Minimum Inhibitory Concentration, tube dilution; type: cell-based; settings: Streptococcus pneumoniae, A9585, overnight 37° C.
# [20] = test system: S. pyogenes A-9604; assay: Minimum Inhibitory Concentration, tube dilution; type: cell-based; settings: Streptococcus pyogenes, A9604, overnight 37° C.
# [21] = test system: S. aureus A-9537; assay: Minimum Inhibitory Concentration, tube dilution; type: cell-based; settings: Staphylococcus aureus, read-out: MIC
# [22] = test system: H. influenzae A-9833; assay: Minimum Inhibitory Concentration, tube dilution; type: cell-based; settings: Haemophilus influenzae, A9833
# [23] = test system: K. pneumoniae A20468; assay: Minimum Inhibitory Concentration, tube dilution; type: cell-based; settings: Klebsiella pneumoniae, A20468, overnight 37° C.; table 6; read-out: MIC
# [24] = test system: S. faecalis A20688; assay: Minimum Inhibitory Concentration, tube dilution; type: cell-based; settings: Enterococcus faecalis
# [25] = test system: S. aureus A15097 (Meth-res.); assay: Minimum Inhibitory Concentration, tube dilution; type: cell-based; settings: Staphylococcus aureus, table 6
# [26] = test system: P. vulgaris A21559; assay: Minimum Inhibitory Concentration, tube dilution; type: cell-based; settings: Proteus vulgaris, A21559, overnight 37° C.
# [27] = test system: P. aeruginosa A-9843A; assay: Minimum Inhibitory Concentration, tube dilution; type: cell-based; settings: Pseudomonas aeruginosa, A9843A
# [28] = test system: S. marcescens A20335; assay: Protective effect, intramuscular treatment of infected mice; type: in vivo; settings: Serratia marcescens, A20335, im; i.m.; challenge 9 × 10^6; read-out: PD50 /Treatment
# Method: (§2) The PD50 (dose in mg/kg required to give protection to 50% of the infected mice) is indicated.
# (§3) Treatment Schedule: Mice were treated i.m. with drugs 0 and 2 hours
# (§4) 3.5 hours (all others); 5 mice were used for each test.
# [29] = Toxicity after intracranial administration to mice; settings: mouse, in vivo
# [30] = test system: P. aeruginosa A20599; assay: Protective effect, intramuscular treatment of infected mice; type: in vivo; settings: Pseudomonas aeruginosa, A20599, im; i.m.; challenge 9 × 10^4; read-out: PD50 /Treatment
# Method: as §2, §3, §4
# [31] = test system: K. pneumoniae A-9664; assay: as above; type: in vivo; settings: Klebsiella pneumoniae, A9664, im; i.m.; challenge 7 × 10^6; read-out: PD50 /Treatment
# Method: as §2, §3, §4
# [32] = test system: P. rettgeri A15167-2; assay: as above; type: in vivo; settings: Providencia rettgeri, A151672, im; i.m.; challenge 3 × 10^7; read-out: PD50 /Treatment
# Method: as §2, §3, §4
# [33] = test system: S. aureus A-9606; assay: as above; type: in vivo; settings: Staphylococcus aureus, A9606, im; i.m.; challenge 1 × 10^9; read-out: PD50 /Treatment
# Method: as §2, §3, §4
# [34] = test system: H. influenzae A21522; assay: Minimum Inhibitory Concentration, tube dilution; type: cell-based; settings: Haemophilus influenzae, overnight 37° C.
# [35] = test system: M. morganii A15149; assay: Protective effect, intramuscular treatment of infected mice; type: in vivo; settings: Morganella morganii, A15149, im; i.m.; challenge 7 × 10^5; read-out: PD50 /Treatment
# Method: as §2, §3, §4
# [36] = test system: P. aeruginosa A20481; assay: as above; type: in vivo; settings: Pseudomonas aeruginosa, A20481, im; i.m.; challenge 3 × 10^4; read-out: PD50 /Treatment
# Method: as §2, §3, §4
# [37] = Urinary recovery in mice after intramuscular administration; type: in vivo; settings: mouse, urine, im, 20 mg/kg, 20 mg/kg i.m., read-out: Percentage of Dose Recovered (urine)
# Description: | a single test; 4 mice per compound.
# [38] = test system: H. influenzae A20178; assay: Minimum Inhibitory Concentration, tube dilution; type: cell-based; settings: Haemophilus influenzae, overnight 37° C.
# [39] = test system: P. aeruginosa A-9843a; assay: Protective effect, intramuscular treatment of infected mice; type: in vivo; settings: Pseudomonas aeruginosa, A9843A, im; challenge 3 × 10^4; Historical data; read-out: PD50 /Treatment
# Method: as §2, §3, §4
# [40] = Blood levels in mice after intramuscular administration; type: in vivo; settings: mouse, im, 20 mg/kg i.m.
# Description: a single test; 4 mice used per compound.
# [41] = test system: P. mirabilis A-9900; assay: animal or person; settings: Proteus mirabilis, A9900, in Mus musculus, im, read-out: PD50 /Treatment, i.m.; challenge 4 × 10^6
# Method: as §2, §3, §4
# [42] = in vivo; settings: mouse
# [43] = test system: E. cloacae A-9569; assay: animal or person; settings: Enterobacter cloacae, A9569, in Mus musculus, im, read-out: PD50 /Treatment
# Method: as §2, §3, §4
# [44] = overnight 37° C., table 6, read-out: MIC
smiles,measurement,setting,value
Cc1cc(C)c[n+](CCSC2=C(C(=O)[O-])N3C(=O)[C@H]([C@@H](C)O)[C@H]3C2)c1 [Example 4],ED50,[1],5 mg/kg
same,half-life at 100 µM,[2],16.9 h
same,AUC,[3]; blood,5500 ng·h/mL
same,Cmax,[3]; blood,11400 ng/mL
same,half-life,"[3]; blood, read-out: T1/2 (blood)",0.173 h
same,dose excreted,"[3]; urine, read-out: Urine Recovery",49 ± 6%
same,MIC,"[4]; A203411, overnight 37° C., table 6",0.06 µg/mL
same,MIC,[5]; table 6,> 32 µg/mL
same,MIC,[6],0.25 µg/mL
same,MIC,"[7]; table 6, read-out: MIC",0.5 µg/mL
same,MIC,"[8]; Pen-res, table 6",0.5 µg/mL
same,MIC,"[9]; table 6, read-out: MIC",0.25 µg/mL
same,MIC,"[10]; A15119, overnight 37° C., table 6",0.06 µg/mL
same,MIC,[11],2 µg/mL
same,MIC,[12],0.25 µg/mL
same,MIC,[13],0.25 µg/mL
same,ED50,[14],~22 mg/kg
same,ED50,[15],> 5 mg/kg
same,ED50,[16],0.4 mg/kg
same,MIC,[17],0.25 µg/mL
same,MIC,[18],0.06 µg/mL
same,MIC,[19]; table 6,0.03 µg/mL
same,MIC,[20]; table 6,0.03 µg/mL
same,MIC,"[21]; A9537, 50% serum, table 6",0.03 µg/mL
same,MIC,"[21]; A9537, overnight 37° C., table 6",0.03 µg/mL
same,MIC,[22]; [44],> 32 µg/mL
same,MIC,[23],0.25 µg/mL
same,MIC,"[24]; A20688, overnight 37° C., table 6, read-out: MIC",0.5 µg/mL
same,MIC,[25],> 63 µg/mL
same,MIC,[26]; table 6,0.03 µg/mL
same,MIC,[27]; [44],32 µg/mL
"C[C@@H](O)[C@H]1C(=O)N2C(C(=O)[O-])=C(SCC[n+]3ccccc3)C[C@H]12 [Example 1, 3-[2-(1-Pyridinium)ethylthio]-6α-[1-(R)-hydroxyethyl]-7-oxo-1-azabicyclo (3.2.0)-hept-2-ene-2-carboxylate]",ED50,[28],3.3 mg/kg
same,half-life at 100 µM,[2],13.5 h
same,MIC,"[4]; A203411, 10^-4",0.03 µg/mL
same,LD50,[29],> 40 mg/kg
same,MIC,[5],8 µg/mL
same,ED50,[30],3 mg/kg
same,ED50,[31],7.7 mg/kg
same,MIC,[7]; read-out: MIC,0.5 µg/mL
same,ED50,[32],5.7 mg/kg
same,MIC,[8]; Pen-res.,0.016 µg/mL
same,MIC,[9]; read-out: MIC,0.5 µg/mL
same,MIC,"[10]; A15119, 10^-4 dil.",0.03 µg/mL
same,ED50,[33],0.11 mg/kg
same,MIC,[34],8 µg/mL
same,ED50,[35],4.4 mg/kg
same,MIC,[19],0.002 µg/mL
same,ED50,[36],0.8 mg/kg
same,dose excreted at 3 h,[37]; 0-3 hours,23.3%
same,dose excreted at 24 h,[37]; 0-24 hours,24.2 ± 5.3%
same,dose excreted at 6 h,[37]; 3-6 hours,0.5%
same,dose excreted at 24 h,[37]; 6-24 hours,0.4%
same,MIC,[38],8 µg/mL
same,MIC,[20],0.008 µg/mL
same,MIC,"[21]; A9537, + 50% serum",0.03 µg/mL
same,MIC,"[21]; A9537, overnight 37° C.",0.008 µg/mL
same,ED50,[39],0.8 mg/kg
same,AUC,[40],6400 ng·h/mL
same,half-life,[40],9 min
same,MIC,[22],8 µg/mL
same,ED50,[41],19 mg/kg
same,MIC,[24]; A20688,0.5 µg/mL
same,MIC,[26],0.03 µg/mL
same,NOAEL,[42],> 40 mg/kg
same,MIC,[27],2 µg/mL
same,ED50,[43],0.4 mg/kg

# — US4642341A, “Carbapenem antibiotics” (priority 1985, dated 1987)
